For the assay, the system named is human endothelial coronary artery cells (HCAECs) which are known in the literature to express LOX-1. Description: Fluorescent confocal imaging of labeled peptide bound to HCAECs. In kind it is cell-based. Conditions: HCAECs grown in glass slides, fluorescent confocal microscope, FIG. 2. The method, then: Images in the assay may be acquired using a laser confocal microscope or an Imager. For example, images of peptides bound to cells can be obtained using a laser confocal microscope as follows: HCAE cells can be grown on high quality borosilicate 8-chambered glass slides (Electron Microscopy Sciences, Fort Washington, Pa.). Then, about 10 μL of 1 mg/ml of an aqueous solution of a labeled peptide can be added to the cells and incubated for 1 hour. Subsequently, the cells preferably are washed with HBSS buffer three times. The cells then can be fixed with 4% formaldehyde solution over 10 minutes. After a final wash with buffer, the slide is imaged. Images preferably are acquired using an OLYMPUS laser scanning confocal microscope, model Fluoview 300, using Ar-ion laser (selecting 488 nm line) and a 510-nm long-pass filter. Images can be acquired using two channels: reflected light and fluorescent mode channel, or an overlay of both channels.
The experimental conditions for imaging the peptide-labeled HCAECs are described previously.

Where no end group is shown, it is not given here. fluorescein = fluorescein (Fl)

Consider “Fl-KKGG-FQTPPQL (fluorescein-KKGGFQTPPQL) [peptide FQTPPQL conjugated with fluorescein via KKGG linker]”, for which the “binding to / localization on HCAECs (fluorescent image)” value is reported as “shown to bind”.
